As a reminder, the IC50 is the midpoint of a concentration-inhibition curve. A word on the half-life: it is the time needed for the level to fall by half in the phase considered. Read a low half-life as fast loss.

These results are taken from ChEMBL document CHEMBL4417631, “Oral peptide inhibitors of interleukin-23 receptor and their use to treat inflammatory bowel diseases” (2017).

In data set [1] the target is T1, Interleukin-23 receptor (Homo sapiens, UniProt Q5VWK5).
T1 sequence (Q5VWK5 whole entry): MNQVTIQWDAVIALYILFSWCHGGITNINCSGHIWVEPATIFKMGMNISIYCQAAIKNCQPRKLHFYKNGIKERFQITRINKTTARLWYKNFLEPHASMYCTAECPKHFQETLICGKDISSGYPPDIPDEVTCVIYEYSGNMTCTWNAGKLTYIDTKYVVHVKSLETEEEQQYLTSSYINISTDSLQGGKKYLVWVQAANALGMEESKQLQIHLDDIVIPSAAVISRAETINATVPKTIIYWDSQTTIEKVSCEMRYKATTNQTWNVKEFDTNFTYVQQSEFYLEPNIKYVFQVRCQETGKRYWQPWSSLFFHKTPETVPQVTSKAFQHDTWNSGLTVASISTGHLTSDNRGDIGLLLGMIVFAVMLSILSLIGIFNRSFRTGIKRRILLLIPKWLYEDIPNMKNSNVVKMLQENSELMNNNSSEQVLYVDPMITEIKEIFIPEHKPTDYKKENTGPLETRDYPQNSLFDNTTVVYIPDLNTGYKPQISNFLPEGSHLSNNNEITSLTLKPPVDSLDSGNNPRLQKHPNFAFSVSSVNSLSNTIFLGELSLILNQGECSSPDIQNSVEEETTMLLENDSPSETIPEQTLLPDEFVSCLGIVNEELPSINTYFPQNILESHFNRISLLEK
Nature of the data set: Inhibition of interleukin-23 receptor in human natural killer cells assessed as reduction in IL23/IL18-induced IFNgamma production incubated for 20 to 24 hrs by ELISA. It counts as cell-based. On the technique in general: In an ELISA, binding on a coated surface is turned into a signal by an enzyme label.

In data set [2] the target is T1, Interleukin-23 receptor. The experiment in a line: Inhibition of interleukin-23 receptor in human DB cells assessed as reduction in IL-23-stimulated STAT3 phosphorylation incubated for 30 mins by HTRF assay. It counts as cell-based.
For data set [3], the target named is T1, Interleukin-23 receptor. Nature of the data set: Inhibition of interleukin-23 binding to human interleukin-23 receptor incubated for 2 hrs by competitive binding ELISA.
Data set [4] in a line: Half life in simulated intestinal fluid at 20 uM by LC-MS/MS analysis. The class given is ADME.
The nature of data set [5]: Inhibition of interleukin-23 binding to rat interleukin-23 receptor incubated for 2 hrs by competitive binding ELISA.
Data set [6] can be described thus: Half life in simulated gastric fluid at 20 uM by LC-MS/MS analysis. It counts as ADME.

*1 amine or outer side, *2 acyl side, *3 side chain or, on linkers, in order; H or OH if unused. Where a SMILES comes first, the peptide text is derived from it. Bridges are numbered along the chain shown (N, C = ends). [ ]: non-standard residue; d: D form. Abu(4-yl) = O=C([C@H](CC[*:3])N[*:1])[*:2]; 2Nal = N[C@@H](Cc1ccc2ccccc2c1)C(=O)O; AEF = NCCOc1ccc(C[C@H](N)C(=O)O)cc1; αMeL = CC(C)C[C@](C)(N)C(=O)O

For the compound `COc1ccc(C[C@H](NC(=O)[C@@H](NC(=O)[C@H](CCC(N)=O)NC(=O)[C@H](Cc2c[nH]c3ccccc23)NC(=O)[C@@H](NC(=O)[C@H](CC(N)=O)NC(=O)[C@@H](NC(=O)[C@@H](Cc2ccccc2)NC(C)=O)C(C)(C)S)[C@@H](C)O)C(C)(C)S)C(=O)N[C@@H](Cc2ccc3ccccc3c2)C(=O)NC2(C(=O)N[C@@H](CCCNC(N)=O)C(=O)N[C@@H](CC(N)=O)C(=O)N[C@@H](CC(N)=O)C(N)=O)CCOCC2)cc1`, the IC50 on Interleukin-23 receptor [1] is below 10 nM.

Take `COc1ccc(C[C@H](NC(=O)[C@@H](NC(=O)[C@H](CCC(N)=O)NC(=O)[C@H](Cc2c[nH]c3ccccc23)NC(=O)[C@@H](NC(=O)[C@H](CCC(N)=O)NC(=O)[C@@H](NC(C)=O)C(C)(C)S)[C@@H](C)O)C(C)(C)S)C(=O)N[C@@H](Cc2ccc3ccccc3c2)C(=O)N[C@@](C)(CCCCN)C(=O)N[C@@H](CCCCNC(C)=O)C(=O)N[C@@H](CC(N)=O)C(=O)N[C@@H](CC(N)=O)C(N)=O)cc1`: the IC50 on Interleukin-23 receptor [1] and at Interleukin-23 receptor [2] was below 10 nM throughout.

As for `COc1ccc(C[C@H](NC(=O)[C@@H]2CSCC[C@H](NC(C)=O)C(=O)N[C@@H](CCC(N)=O)C(=O)N[C@@H]([C@@H](C)O)C(=O)N[C@@H](Cc3c[nH]c4ccccc34)C(=O)N[C@@H](CCC(N)=O)C(=O)N2)C(=O)N[C@@H](Cc2ccc3ccccc3c2)C(=O)N[C@@](C)(CCCCN)C(=O)N[C@@H](CCCCNC(C)=O)C(=O)N[C@@H](CC(N)=O)C(=O)NCC(N)=O)cc1`, the IC50 at Interleukin-23 receptor [3] was below 10 nM; in data set [5] it was 10 to 25 nM; on Interleukin-23 receptor [2], below 10 nM. The results for the half-life at 20 µM in data set [4] and in data set [6] were 180 to 360 min and below 60 min, respectively.

With `CC(=O)NCCCC[C@H](NC(=O)[C@](C)(CC(C)C)NC(=O)[C@H](Cc1ccc2ccccc2c1)NC(=O)[C@H](Cc1ccc(OCCN)cc1)NC(=O)[C@@H]1CSCC[C@H](NC(C)=O)C(=O)N[C@@H](CCC(N)=O)C(=O)N[C@@H]([C@@H](C)O)C(=O)N[C@@H](Cc2c[nH]c3ccccc23)C(=O)N[C@@H](CCC(N)=O)C(=O)N1)C(=O)N[C@@H](CC(N)=O)C(=O)N[C@@H](CC(N)=O)C(N)=O` (Ac-[Abu(4-yl)]QTWQC[AEF][2Nal][αMeL]K(Ac)NN-NH2; thioether 1-6), the IC50 (at Interleukin-23 receptor [3]; in data set [5]; on Interleukin-23 receptor [2]) was below 10 nM in each case. The half-life at 20 µM in data set [4] was 120 to 180 min; in data set [6], below 60 min.

As to `COc1ccc(C[C@H](NC(=O)[C@@H]2CSCC[C@H](NC(=O)[C@@H](CCCCN)NC(C)=O)C(=O)N[C@@H](CCC(N)=O)C(=O)N[C@@H]([C@@H](C)O)C(=O)N[C@@H](Cc3c[nH]c4ccccc34)C(=O)N[C@@H](CCC(N)=O)C(=O)N2)C(=O)N[C@@H](Cc2ccc3ccccc3c2)C(=O)N[C@@](C)(CC(C)C)C(=O)N[C@@H](CCC(=O)O)C(=O)N[C@@H](CC(N)=O)C(=O)NCC(N)=O)cc1`, the IC50 on Interleukin-23 receptor [3] is below 10 nM; in data set [5], 10 to 25 nM; on Interleukin-23 receptor [2] it was below 10 nM. For the same compound, the half-life at 20 µM in data set [4] was 60 to 120 min; in data set [6], below 60 min.

On to `COc1ccc(C[C@H](NC(=O)[C@@H](NC(=O)[C@H](CCC(N)=O)NC(=O)[C@H](Cc2c[nH]c3ccccc23)NC(=O)[C@@H](NC(=O)[C@H](CC(N)=O)NC(=O)[C@@H](NC(=O)[C@@H](Cc2ccccc2)NC(C)=O)C(C)(C)S)[C@@H](C)O)C(C)(C)S)C(=O)N[C@@H](Cc2ccc3ccccc3c2)C(=O)NC2(C(=O)N[C@@H](CCCNC(N)=O)C(=O)N[C@@H](CC(N)=O)C(=O)N[C@@H](CC(N)=O)C(N)=O)CCCCC2)cc1`, for which the IC50 on Interleukin-23 receptor [1] was below 10 nM.

As to `CC(=O)NCCCC[C@H](NC(=O)[C@](C)(CCCCN)NC(=O)[C@H](Cc1ccc2ccccc2c1)NC(=O)[C@H](Cc1ccc(OCCN)cc1)NC(=O)[C@@H]1CSCC[C@H](NC(C)=O)C(=O)N[C@@H](CCC(N)=O)C(=O)N[C@@H]([C@@H](C)O)C(=O)N[C@@H](Cc2c[nH]c3ccccc23)C(=O)N[C@@H](CCC(N)=O)C(=O)N1)C(=O)N[C@@H](CC(N)=O)C(=O)NCC(N)=O`, the IC50 (at Interleukin-23 receptor [3]; in data set [5]; on Interleukin-23 receptor [2]) was below 10 nM throughout. The half-life at 20 µM in data set [4] and in data set [6] was above 360 min throughout.

Turning to `CC(=O)N[C@@H](CCC(=O)O)C(=O)N[C@H]1CCSC[C@@H](C(=O)N[C@@H](Cc2ccc(OCCN)cc2)C(=O)N[C@@H](Cc2ccc3ccccc3c2)C(=O)N[C@@](C)(CCCCN)C(=O)N[C@@H](CCC(=O)O)C(=O)N[C@@H](CC(N)=O)C(=O)N[C@@H](CC(N)=O)C(N)=O)NC(=O)[C@H](CCC(N)=O)NC(=O)[C@H](Cc2c[nH]c3ccccc23)NC(=O)[C@H]([C@@H](C)O)NC(=O)[C@H](CCC(N)=O)NC1=O`, the IC50 (at Interleukin-23 receptor [3]; in data set [5]; on Interleukin-23 receptor [2]) was below 10 nM each time. Also, the figures for the half-life at 20 µM in data set [4] and in data set [6] were above 360 min and 120 to 180 min, respectively.

Turning to `CC(=O)NCCCC[C@H](NC(=O)[C@](C)(CCCCN)NC(=O)[C@H](Cc1ccc2ccccc2c1)NC(=O)[C@H](Cc1ccc(C(N)=O)cc1)NC(=O)[C@@H]1CSCC[C@H](NC(C)=O)C(=O)N[C@@H](CCC(N)=O)C(=O)N[C@@H]([C@@H](C)O)C(=O)N[C@@H](Cc2c[nH]c3ccccc23)C(=O)N[C@@H](CCC(N)=O)C(=O)N1)C(=O)N[C@@H](CC(N)=O)C(=O)NCC(N)=O`, the IC50 on Interleukin-23 receptor [3] is 10 to 25 nM; in data set [5] it was 25 to 100 nM; at Interleukin-23 receptor [2], below 10 nM. Also, the half-life at 20 µM in data set [4] is 60 to 180 min; in data set [6], below 60 min.

Consider `COc1ccc(C[C@H](NC(=O)[C@@H]2CSCC[C@H](NC(C)=O)C(=O)N[C@@H](CCC(N)=O)C(=O)N[C@@H]([C@@H](C)O)C(=O)N[C@@H](Cc3c[nH]c4ccccc34)C(=O)N[C@@H](CCC(N)=O)C(=O)N2)C(=O)N[C@@H](Cc2c[nH]c3ccccc23)C(=O)N[C@@](C)(CCCCN)C(=O)N[C@@H](CCC(=O)O)C(=O)N[C@@H](CC(N)=O)C(=O)NCC(N)=O)cc1`, for which the figures for the IC50 (at Interleukin-23 receptor [3]; in data set [5]; on Interleukin-23 receptor [2]) were 10 to 25 nM, 25 to 100 nM and 10 to 25 nM, respectively. Also, the figures for the half-life at 20 µM in data set [4] and in data set [6] were above 360 min and below 60 min, respectively.

In the case of `CC(=O)NCCCC[C@H](NC(=O)[C@](C)(CCCCN)NC(=O)[C@H](Cc1ccc2ccccc2c1)NC(=O)[C@H](Cc1ccc(C(N)=O)cc1)NC(=O)[C@@H](NC(=O)[C@H](CCC(N)=O)NC(=O)[C@H](Cc1c[nH]c2ccccc12)NC(=O)[C@@H](NC(=O)[C@H](CCC(N)=O)NC(=O)[C@@H](NC(C)=O)C(C)(C)S)[C@@H](C)O)C(C)(C)S)C(=O)N[C@@H](CC(N)=O)C(=O)N[C@@H](CC(N)=O)C(N)=O`, the IC50 is below 10 nM at Interleukin-23 receptor [1], 25 to 100 nM in data set [5] and below 10 nM on Interleukin-23 receptor [2].

For `COc1ccc(C[C@H](NC(=O)[C@H]2NC(=O)[C@H](CCC(N)=O)NC(=O)[C@H](Cc3c[nH]c4ccccc34)NC(=O)[C@H]([C@@H](C)O)NC(=O)[C@H](CCC(N)=O)NC(=O)[C@@H](NC(C)=O)CCSC2(C)C)C(=O)N[C@@H](Cc2ccc3ccccc3c2)C(=O)N[C@@](C)(CCCCN)C(=O)N[C@@H](CCC(=O)O)C(=O)N[C@@H](CC(N)=O)C(=O)NCC(N)=O)cc1`, the IC50 on Interleukin-23 receptor [3] lay within 100 to 1000 nM; in data set [5], 100 to 1000 nM; at Interleukin-23 receptor [2], 25 to 100 nM. The values for the half-life at 20 µM in data set [4] and in data set [6] were 180 to 360 min and 120 to 180 min, respectively.
